Assay results from patent publication EP0063525A1, “Dibenzazepine tetracyclic derivatives, process for their preparation and pharmaceutical compositions containing them” (CENTRE NATIONAL DE LA RECHERCHE SCIENTIFIQUE (CNRS), priority 1981, dated 1982).
Read-outs that look alike come from different tables or passages of the source.

Columns and labels:
Souris [1] = assay: antireserpine activity: reserpine hypothermia; type: in vivo; conditions: réserpine 5 mg/kg i.p. 17 h before
Procedure: On note ensuite les températures témoins (réserpine), puis les températures 1, 2, 3 et 4 heures après l'administration des produits étudiés.
Les animaux sont répartis en lots de 4 animaux et reçoivent par voie intrapéritonéale la réserpine à une dose de 5 mg/kg. 17 heures après cette injection, on mesure la température corporelle de l'animal à l'aide d'une sonde thermocouple introduite dans le rectum; chaque lot reçoit ensuite la substance par voie intrapéritonéale. Le lot témoin reçoit la même quantité de solvant et par la même voie. La température corporelle est ensuite mesurée toutes les heures pendant 4 heures.
Les résultats sont rassemblés dans un tableau récapitulatif-où sont indiqués : • - la température moyenne pour chaque lot relevée 17 heures après l'injection de la réserpine, • - la moyenne des variations de température pour chaque lot relevées 1,2, 3 et 4 heures après l'injection de la substance étudiée, • - la somme des variations de températures pendant 4 heures, • - le pourcentage d'augmentation de la température pour chaque produit par rapport aux témoins.

[2] = acute toxicity in the mouse, intraperitoneal; type: in vivo, Souris; conditions: mouse, in vivo, ip, voie intrapéritonéale; for LD50 at 48 h: souris femelles, read-out: DL 50; for mortality at 48 h: read-out: Mortalité %
Source text: (§1) Les produits ont été administrés par voie intrapéritonéale à des souris femelles dont le poids variait de 18 à 30 g.
(§2) Les animaux injectés ont été maintenus dans une salle thermostatée, nourris et abreuvés à volonté.
(§3) La mortalité a été relevée à 1 heure, 4 heures, 24 heures et 48 heures.

souris femelles = assay: acute toxicity in the mouse, intraperitoneal; type: in vivo; conditions: voie intrapéritonéale, dead mice of the group
Source text: as §1, §2, §3

Souris [3] = assay: tetrabenazine ptosis; type: in vivo; conditions: product i.p. 100 mg/kg 30 min before tétrabénazine 32 mg/kg i.v.
Procedure: Ce test permet de révéler également une activité antidépressive avec l'avantage d'une lecture plus rapide qu'avec la réserpine.
Les souris sont réparties par lots de 5.
Le ptosis est noté avant l'injection de tétrabénazine, 30 minutes, 60 minutes, 90 minutes et 120 minutes après.
On a adopté la notation suivante : • - 0 : pour un oeil ouvert, • - 1 : pour un oeil fermé au quart, • - 2 : pour un oeil fermé à moitié, • - 3 : pour un oeil fermé aux trois-quarts, • - 4 : pour un oeil fermé complètement.
Le lot témoin comprend 20 souris.

[4] = ip, 4 h, product i.p. 150 mg/kg, read-out: % d'augmentation par rapport aux témoins

| SMILES | LD50 at 48 h [2] | mortality at 48 h ([2]; 50 mg/kg) | mortality at 48 h ([2]; 250 mg/kg) | Mortalité en 1 heure (souris femelles; 50 mg/kg) | Mortalité en 48 h. (souris femelles; 50 mg/kg) | Mortalité en 1 heure (souris femelles; 250 mg/kg) | Mortalité en 48 h. (souris femelles; 250 mg/kg) | change in vivo at 150 mg/kg (Souris [1]; [4]) | variation de température T=1h (Souris [1]; product i.p. 150 mg/kg) | variation de température T= 2h (Souris [1]; product i.p. 150 mg/kg) | variation de température T=3h (Souris [1]; product i.p. 150 mg/kg) | variation de température T=4h (Souris [1]; product i.p. 150 mg/kg) | mortality at 48 h ([2]; 100 mg/kg) | mortality at 48 h ([2]; 500 mg/kg) | Mortalité en 1 heure (souris femelles; 100 mg/kg) | Mortalité en 48 h. (souris femelles; 100 mg/kg) | Mortalité en 1 heure (souris femelles; 500 mg/kg) | Mortalité en 48 h. (souris femelles; 500 mg/kg) | other results |
| --- | --- | --- | --- | --- | --- | --- | --- | --- | --- | --- | --- | --- | --- | --- | --- | --- | --- | --- | --- |
| CN(C)CCCN1c2ccccc2C=Cc2ccccc21 [compound 21, (α-diméthylaminopropyl)-5 dibenzo [b,f] 5H azépine, reference compound] | 100 mg/kg | 0% | 100% | 0 | 0 | 5 | 5 |  |  |  |  |  |  |  |  |  |  |  | change in vivo at 50 mg/kg (Souris [1]; ip, 4 h, product i.p. 50 mg/kg, read-out: % d'augmentation par rapport aux témoins): 30%; variation de température T= 2h (Souris [1]; product i.p. 50 mg/kg): -0,1; variation de température T=3h (Souris [1]; product i.p. 50 mg/kg): +0,2; variation de température T=4h (Souris [1]; product i.p. 50 mg/kg): +0,5; mortality at 48 h ([2]; 75 mg/kg): 0%; mortality at 48 h ([2]; 125 mg/kg): 100%; Mortalité en 1 heure (souris femelles; 75 mg/kg): 0; Mortalité en 48 h. (souris femelles; 75 mg/kg): 0; Mortalité en 1 heure (souris femelles; 125 mg/kg): 5; Mortalité en 48 h. (souris femelles; 125 mg/kg): 5 |
| CN(C)CCCN1c2ccccc2-c2c(-c3ccccc3)nn(-c3ccccc3)c2-c2ccccc21 [compound 14, (γ-diméthylaminopropyl)-8-diphényl-1,3 dihydro-1,8 (dibenzo [b,f]pyrazolo [3,4-d])azépine] | 200 mg/kg | 0% | 80% | 0 | 0 | 2 | 4 | 40% | +1,5 | +0,6 | +0,6 | +0,1 | 0% | 100% | 0 | 0 | 3 | 5 |  |
| CC(CN(C)C)CN1c2ccccc2-c2onc(-c3ccccc3)c2-c2ccccc21 (centres unmarked) [compound 19, (méthyl-2 diméthylamino-3 propyl)-8 phényl-,3 (dibenzo [b ,f]isoxazolo [3 ,4-d]) 8H azépine] | 175 mg/kg | 0% | 60% | 0 | 0 | 1 | 3 | 110% | +3,4 | +0,7 | +0,7 | -0,6 | 0% | 100% | 0 | 0 | 5 | 5 | inhibition in vivo at 100 mg/kg (Souris [3]; ip, 2 h, ptosis, read-out: % de protection): 16%; Ptosis Total (Souris [3]): 25,3; Ptosis 30 minutes (Souris [3]; score 0-4 per eye): 5; Ptosis 60 minutes (Souris [3]; score 0-4 per eye): 6,3; Ptosis 90 minutes (Souris [3]; score 0-4 per eye): 6,7; Ptosis 120 minutes (Souris [3]; score 0-4 per eye): 7,3 |
